# Test results from patent US10668055B2, “Cancer treatment using combinations of ERK and RAF inhibitors” (BIOMED VALLEY DISCOVERIES, INC., priority 2013, dated 2020).
# Read-outs that look alike come from different tables or passages of the source.
# Key:
# G-361 = test: Single agent proliferation assay (CellTiter-Glo, 72 h); format: cell-based; conditions: Homo sapiens, G-361, 72 h
# Method: (§1) Cells were seeded in 96-well plates at the densities and media conditions indicated in Table 17 and allowed to adhere overnight prior to addition of compound or vehicle control. Compounds were prepared from DMSO stocks to give the desired final concentrations. The final DMSO concentration was constant at 0.1%. Test compounds were incubated with the cells for 72 h at 37° C., 5% CO2 in a humidified atmosphere. CellTiter-Glo® reagent (Promega, Madison, Wis.) was added according to manufacturer's instructions and luminescence detected using the BMG FLUOstar plate reader (BMG Labtech, Ortenberg, Germany). The average media only background value was deducted and the data analysed using a 4-parameter logistic equation in GraphPad Prism (GraphPad Software, La Jolla, Calif.).
# A375 cells [1] = test: Proliferation assay (Alamar Blue, 96 hours) on parental and dose-escalated A375 cell lines; conditions: Homo sapiens
# Method: (§2) Cancer cell lines were maintained in cell culture under standard media and serum conditions. For dose escalation studies, A375 cells were split, grown to about 40-60% confluence, and then treated with the initial dose of the specified drug.
# (§3) Proliferation assays were used to track changes in sensitivity to the escalated agent(s) at appropriate time intervals (e.g. each month, although the timing is dependent on adequate cell numbers being available). For proliferation assays, cells were seeded in 96-well plates at 3000 cells per well in drug-free DMEM medium containing 10% FBS and allowed to adhere overnight prior to addition of compound or vehicle control. […] Test compounds were incubated with the cells for 96 hours at 37° C. and 5% CO2 in a humidified atmosphere. Alamar Blue 10% (v/v) was then added and incubated for 4 hours and fluorescent product was detected using a BMG FLUOstar plate reader. The average media only background value was deducted and the data analyzed using a 4-parameter logistic equation in GraphPad Prism. Paclitaxel was used as a positive control.
# A375 cells [2] = system: A375 cells
# Method: as §2, §3
# A375 = test: Single agent proliferation assay (CellTiter-Glo, 72 h); format: cell-based, human; conditions: Homo sapiens, A-375; A375, 72 h
# Method: as §1
structure (smiles),measurement,setting,value
CC(=O)O[C@H]1C(=O)[C@@]2(C)[C@H]([C@H](OC(=O)c3ccccc3)[C@]3(O)C[C@H](OC(=O)[C@H](O)[C@@H](NC(=O)c4ccccc4)c4ccccc4)C(C)=C1C3(C)C)[C@]1(OC(C)=O)CO[C@@H]1C[C@@H]2O [Paclitaxel],IC50,G-361,7 nM
same,IC50,"A375 cells [1]; A-375, read-out: Relative IC50, Month 1, Par = Parental cell line",2.2 nM
same,IC50,"A375 cells [1]; A-375, read-out: Relative IC50, Month 1, cell line BVD-523 (0.48 μM)",3.4 nM
same,IC50,"A375 cells [1]; A-375, read-out: Relative IC50, Month 1, cell line Dab (15 nM Dab)",3.3 nM
same,IC50,"A375 cells [1]; A-375, read-out: Relative IC50, Month 1, cell line Dab/523 (7.5 nM/0.24 μM)",3.4 nM
same,IC50,"A375 cells [1]; A-375, read-out: Relative IC50, Month 1, cell line Tram (growing in 2 nM Tram)",3 nM
same,IC50,"A375 cells [1]; A-375, read-out: Relative IC50, Month 2, Par = Parental cell line",3.7 nM
same,IC50,"A375 cells [1]; A-375, read-out: Relative IC50, Month 2, cell line BVD-523 (0.8 μM)",6.5 nM
same,IC50,"A375 cells [1]; A-375, read-out: Relative IC50, Month 2, cell line Dab (127 nM Dab)",1.9 nM
same,IC50,"A375 cells [1]; A-375, read-out: Relative IC50, Month 2, cell line Dab/523 (12.5 nM/0.4 μM)",4.2 nM
same,IC50,"A375 cells [1]; A-375, read-out: Relative IC50, Month 2, cell line Tra (8 nM Tram)",8.9 nM
same,IC50,"A375 cells [1]; A-375, read-out: Relative IC50, Month 3, Par = Parental cell line",1.9 nM
same,IC50,"A375 cells [1]; A-375, read-out: Relative IC50, Month 3, cell line Dab (3.2 μM Dab)",1.9 nM
same,IC50,A375 cells [2],4.7 nM
same,IC50,A375,5 nM
